How the values were obtained:
Assay type in all cases: cell-based
[1] = test system: Wnt activity (Sp5-Luc reporter, SW480 colon carcinoma cells); experiment: Wnt activity screening assay: Sp5-Luc reporter gene assay in SW480 cells; conditions: Homo sapiens; for EC50: SW480 cells, overnight incubation; for inhibition at 10 µM: given where EC50 >10 μM, SW480, read-out: percent inhibition at 10 μM
From the text: The screening assay for Wnt activity is described as follows. Reporter cell lines can be generated by stably transducing cancer cell lines (e.g., colon cancer) or primary cells (e.g., IEC-6 intestinal cells) with a lentiviral construct that includes a Wnt-responsive promoter driving expression of the firefly luciferase gene.
SW480 colon carcinoma cells were transduced with a lentiviral vector expressing luciferase with a human Sp5 promoter consisting of a sequence of eight TCF/LEF binding sites. SW480 cells stably expressing the Sp5-Luc reporter gene and a hygromycin resistance gene were selected by treatment with 150 μg/mL of hygromycin for 7 days. These stably transduced SW480 cells were expanded in cell culture and used for all further screening activities. Each compound was dissolved in DMSO as a 10 mM stock and used to prepare compound source plates. Serial dilution (1:3, 10-point dose-response curves starting from 10 μM) and compound transfer was performed using the ECHO 550 (Labcyte, Sunnyvale, Calif.) into 384-well white solid bottom assay plates (Greiner Bio-One) with appropriate DMSO backfill for a final DMSO concentration of 0.1%. For Sp5-Luc reporter gene assays, the cells were plated at 4,000 cells/well in 384-well plates with medium containing 1% fetal bovine serum and incubated overnight at 37° C. and 5% CO2. Following incubation, 20 μl of BrightGlo luminescence reagent (Promega) was added to each well of the 384-well assay plates. The plates were placed on an orbital shaker for 2 min and then luminescence was quantified using the Envision (Perkin Elmer) plate reader. Readings were normalized to DMSO only treated cells, and normalized activities were utilized for EC50 calculations using the dose-response log (inhibitor) vs. response -variable slope (four parameters) nonlinear regression feature available in GraphPad Prism 5.0 (or Dotmatics). For EC50 of >10 μM, the percent inhibition at 10 μM is provided.

[2] = test system: SW480 colon cancer cells; experiment: Cell viability assay (CellTiter-Blue); conditions: Homo sapiens; for EC50: 96 h, SW480 cell viability, four days, CellTiter-Blue; for inhibition at 10 µM: given where EC50 >10 μM, SW480 viability, read-out: percent inhibition at 10 μM
Procedure: Representative compounds were screened using the following assay procedure to assess the effect on cell viability as described below.
Each compound was dissolved in DMSO as a 10 mM stock and used to prepare compound source plates. Serial dilution (1:3, 8-point dose-response curves from 10 μM to 0.0045 μM) and compound transfer was performed using the ECHO 550 (Labcyte, Sunnyvale, Calif.) into 96-well clear bottom, black-walled plates (Corning-Costar).
Approximately 2×10^3 SW480 colon cancer cells were seeded into each well and allowed to incubate in the presence or absence of compound for four days at 37° C./5% CO2. Eight replicates of DMSO-treated cells served as controls and cells treated with compound were performed in duplicate.
After incubation, 20 μL of CellTiter-Blue (Promega) was added to each well allowed to incubate for approximately 3 hours. This reagent was a buffered solution which contains resazurin, metabolically active cells were able to reduce rezarurin (blue) into resorufin (pink) which was highly fluorescent. This measured fluorescence was used as a readout for cell viability.
After incubation, the plates were read at Ex 560 nm Em 590 nm (Cytation 3, BioTek). Dose-response curves were generated and EC50 concentration values were calculated using non-linear regression curve fit in the GraphPad Prism (San Diego, Calif.) or Dotmatics' Studies Software (Bishops Stortford, UK). For EC50 of >10 μM, the percent inhibition at 10 μM is provided.

[3] = test system: IL-6 (THP-1 cells); experiment: IL-6 inhibition in LPS-stimulated THP-1 cells (HTRF); conditions: Homo sapiens; for EC50: THP-1 cells, LPS 500 ng/mL, 22 hours, IL6 HTRF; for inhibition at 10 µM: given where EC50 >10 μM, THP-1, IL6, read-out: percent inhibition at 10 μM
Procedure: Human Monocyte Cell Culture: Human monocyte cell line (THP-1 cells; Catalog # TIB-202, ATCC, Manassas, Va.) were cultured in Roswell Park Memorial Institute (RPMI) 1640 Medium (Catalog #21870-100, Buffalo, N.Y.) with 1% L-glutamine, 1% HEPES, 1% Sodium Pyruvate, 2% Sodium Bicarbonate supplemented with 100 units/mL penicillin, 50 μg/mL streptomycin, 2-mercaptoethanol (0.05 mM) [basal medium] and 10% fetal bovine serum (Catalog #16140089, Life Technologies, Carlsbad, Calif.) at 37° C. and 5% CO2.
Compound Screening: THP-1 cells were cultured in basal media with 1% FBS for 24 hours before the start of the assay. Each compound was dissolved in DMSO as a 10 mM stock and used to prepare compound source plates. Serial dilution (1:3, 10-point dose-response curves starting from 10 μM) and compound transfer was performed using the ECHO 550 (Labcyte, Sunnyvale, Calif.) into 384-well white low volume assay plates (Greiner Bio-One) with appropriate DMSO backfill for a final DMSO concentration of 0.1%. THP-1 cells were plated at 5000 cells/well in the 384-well plates and incubated at 37° C. for 2 h. 500 ng/mL of LPS was added after 2 hours and cells were incubated for another 22 hours at 37° C. Plates were spun in a centrifuge for 1 minute at […] and a mixture of anti-IL6 XL665, and anti-IL6 Cryptate diluted in reconstitution buffer (Cisbio Inc.) was added to each well. Following incubation for 3 hrs at room temperature, Homogeneous Time-Resolved Fluorescence (HTRF) was measured using the Envision (Perkin Elmer) at 665 nm and […]. The ratio of fluorescence at 665 nm to 620 nm was used as a readout for IL6 quantification. All samples were processed in duplicate. Readings were normalized to DMSO treated cells and normalized activities were utilized for EC50 calculations using the dose-response log (inhibitor) vs. response —variable slope (four parameters) nonlinear regression feature available in GraphPad Prism 5.0 (or Dotmatics). For EC50 of >10 μM, the percent inhibition at 10 μM is provided.

Row | EC50 [1] [µM] | EC50 [2] [µM] | EC50 [3] [µM] | SMILES | inhibition at 10 µM [1] [%] | inhibition at 10 µM [2] [%] | inhibition at 10 µM [3] [%]
1 | 0.104 | 0.345 | 0.107 | FC1(F)CCN(Cc2cncc(-c3ccc4[nH]nc(-c5cc6cccnc6[nH]5)c4n3)c2)C1 [Compound 278, 5-(5-((3,3-Difluoropyrrolidin-1-yl)methyl)pyridin-3-yl)-3-(1H-pyrrolo[2,3-b]pyridin-2-yl)-1H-pyrazolo[4,3-b]pyridine] | – | – | –
2 | > 10 | > 10 | 0.157 | O=C(Nc1cncc(-c2ccc3[nH]nc(-c4cc5cccnc5[nH]4)c3n2)c1)C1CCCCC1 [Compound 275, N-(5-(3-(1H-Pyrrolo[2,3-b]pyridin-2-yl)-1H-pyrazolo[4,3-b]pyridin-5-yl)pyridin-3-yl)cyclohexanecarboxamide] | 14.9 | 10.5 | –
3 | > 10 | > 10 | > 10 | CN(C)CCNc1cc(F)cc(-c2ccnc3[nH]c(-c4n[nH]c5ccc(-c6ccncc6)nc45)cc23)c1 [Compound 466, N^1-(3-Fluoro-5-(2-(5-(pyridin-4-yl)-1H-pyrazolo[4,3-b]pyridin-3-yl)-1H-pyrrolo[2,3-b]pyridin-4-yl)phenyl)-N^2,N^2-dimethylethane-1,2-diamine] | 8.6 | 16.8 | 31
4 | 3.64 | > 10 | 0.303 | c1csc(-c2ccnc3[nH]c(-c4n[nH]c5ccc(-c6cncc(OC7CCCCC7)c6)nc45)cc23)c1 [Compound 703, 5-(5-(Cyclohexyloxy)pyridin-3-yl)-3-(4-(thiophen-2-yl)-1H-pyrrolo[2,3-b]pyridin-2-yl)-1H-pyrazolo[4,3-b]pyridine] | – | 52.9 | –
5 | > 10 | > 10 | 0.003 | c1cnc2[nH]c(-c3n[nH]c4ccc(-c5cncnc5)nc34)cc2c1 [Compound 279, 5-(Pyrimidin-5-yl)-3-(1H-pyrrolo[2,3-b]pyridin-2-yl)-1H-pyrazolo[4,3-b]pyridine] | 8 | 14.3 | –
6 | 3.78 | 2.81 | > 10 | CCNCc1cncc(-c2ccc3[nH]nc(-c4cc5cccnc5[nH]4)c3n2)c1 [Compound 258, N-((5-(3-(1H-Pyrrolo[2,3-b]pyridin-2-yl)-1H-pyrazolo[4,3-b]pyridin-5-yl)pyridin-3-yl)methyl)ethanamine] | – | – | 4.6
7 | > 10 | 2.06 | > 10 | Fc1ccccc1-c1ccnc2[nH]c(-c3n[nH]c4ccc(-c5cncc(CNCc6ccccc6)c5)nc34)cc12 [Compound 80, N-Benzyl-1-(5-(3-(4-(2-fluorophenyl)-1H-pyrrolo[2,3-b]pyridin-2-yl)-1H-pyrazolo[4,3-b]pyridin-5-yl)pyridin-3-yl)methanamine] | 29 | – | 18.2
8 | 3.83 | 1.44 | 3.43 | CN1CCN(c2ccnc3[nH]c(-c4n[nH]c5ccc(-c6cncc(NC(=O)C(C)(C)C)c6)nc45)cc23)CC1 [Compound 232, N-(5-(3-(4-(4-Methylpiperazin-1-yl)-1H-pyrrolo[2,3-b]pyridin-2-yl)-1H-pyrazolo[4,3-b]pyridin-5-yl)pyridin-3-yl)pivalamide] | – | – | –
9 | > 10 | > 10 | 0.006 | Fc1ccccc1-c1ccnc2[nH]c(-c3n[nH]c4ccc(-c5ccccn5)nc34)cc12 [Compound 84, 3-(4-(2-Fluorophenyl)-1H-pyrrolo[2,3-b]pyridin-2-yl)-5-(pyridin-2-yl)-1H-pyrazolo[4,3-b]pyridine] | 3 | 16.5 | –
10 | > 10 | 3.53 | 0.34 | CCCCC(=O)Nc1cncc(-c2ccc3[nH]nc(-c4cc5c(N6CCCCC6)ccnc5[nH]4)c3n2)c1 [Compound 187, N-(5-(3-(4-(Piperidin-1-yl)-1H-pyrrolo[2,3-b]pyridin-2-yl)-1H-pyrazolo[4,3-b]pyridin-5-yl)pyridin-3-yl)pentanamide] | 14.3 | – | –
11 | > 10 | > 10 | > 10 | Nc1cncc(-c2ccc3[nH]nc(-c4cc5c(-c6ccncc6)ccnc5[nH]4)c3n2)c1 [Compound 115, 5-(3-(4-(Pyridin-4-yl)-1H-pyrrolo[2,3-b]pyridin-2-yl)-1H-pyrazolo[4,3-b]pyridin-5-yl)pyridin-3-amine] | 24.4 | 17.5 | 22.2
12 | > 10 | 4.21 | 0.653 | CN(C)Cc1cncc(-c2ccc3[nH]nc(-c4cc5cccnc5[nH]4)c3n2)c1 [Compound 265, 1-(5-(3-(1H-Pyrrolo[2,3-b]pyridin-2-yl)-1H-pyrazolo[4,3-b]pyridin-5-yl)pyridin-3-yl)-N,N-dimethylmethanamine] | 20.6 | – | –
13 | 5.27 | > 10 | 6.95 | FC1(F)CCN(Cc2cncc(-c3ccc4[nH]nc(-c5cc6c(N7CCCCC7)ccnc6[nH]5)c4n3)c2)C1 [Compound 194, 5-(5-((3,3-Difluoropyrrolidin-1-yl)methyl)pyridin-3-yl)-3-(4-(piperidin-1-yl)-1H-pyrrolo[2,3-b]pyridin-2-yl)-1H-pyrazolo[4,3-b]pyridine] | – | 28.3 | –
14 | > 10 | > 10 | > 10 | c1csc(-c2ccnc3[nH]c(-c4n[nH]c5ccc(-c6cncnc6)nc45)cc23)c1 [Compound 363, 5-(Pyrimidin-5-yl)-3-(4-(thiophen-2-yl)-1H-pyrrolo[2,3-b]pyridin-2-yl)-1H-pyrazolo[4,3-b]pyridine] | 29.8 | 29.3 | 36.3
15 | 0.31 | > 10 | > 10 | Oc1cncc(-c2ccc3[nH]nc(-c4cc5c(-c6ccc(F)cc6)ccnc5[nH]4)c3n2)c1 [Compound 533, 5-(3-(4-(4-Fluorophenyl)-1H-pyrrolo[2,3-b]pyridin-2-yl)-1H-pyrazolo[4,3-b]pyridin-5-yl)pyridin-3-ol] | – | 15.4 | 37.1
